Data from patent US20030165919A1, “Method for the analysis of exogenic and endogenic cell activiation based on measuring the aggregation of receptors” (priority 2000, published 2003).

Experiments:
Format in all cases: cell-based
CD47/CD14 (Uchm1) = target: T1, CD47/CD14 (Uchm1) (Homo sapiens, UniProt P08571); experiment: FRET co-assembly of CD47 with CD14 on monocytes; conditions: LPS 4 nM, ceramide 40 nM, LTA 1 μg/ml; mean ± SD of 10 experiments; >5% = positive transfer
T1 construct: endogenous in cells; host or cells: human monocytes in whole blood
T1 sequence (P08571 20-345 limits assumed): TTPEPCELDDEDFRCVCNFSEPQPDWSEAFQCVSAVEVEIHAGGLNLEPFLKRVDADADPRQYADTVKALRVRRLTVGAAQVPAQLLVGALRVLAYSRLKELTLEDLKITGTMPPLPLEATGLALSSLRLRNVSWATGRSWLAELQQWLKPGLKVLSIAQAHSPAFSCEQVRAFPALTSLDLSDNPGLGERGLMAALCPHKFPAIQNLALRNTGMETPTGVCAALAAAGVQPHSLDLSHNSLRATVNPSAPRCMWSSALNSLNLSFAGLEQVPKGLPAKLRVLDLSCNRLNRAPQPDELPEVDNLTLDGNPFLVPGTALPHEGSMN
Method: (§1) Aliquots […] of whole blood were incubated with the following stimulatory compounds at 37° C. for 15 minutes: LPS of Salmonella minnesota (0.1-10 nM, Mw 10 kDa), ceramide (primarily stearic acid and nervonic acid) and sulfogalactosyl ceramide (SG-cer, […]), both of which tested LPS free in the LAL assay (Cer, 1 nM-5.5 mM), lysophosphatidyl choline (lyso-PC, 10 mM), phorbol-12-myristate-13-acetate (PMA, 1 mM), N-formyl-L-methionyl-L-leucyl-L-phenyl alamine (fMLP, 1 mM), PE, PC, PI and PS liposomes (10 mm) which had been prepared as described above. All reagents were obtained from Sigma. In addition, the cells were stimulated with HPS70 (7 nM), dHSP70 (7 nM) and SG-cer+dHSP70 (40 nM+7 nM). After incubation, the cells were washed with cold PBS containing 0.1% of NaN3. The synthetic LPS antagonist lipid IVa (“compound-406”, 1-400 ng/ml) and lipid A derived from E. coli (1-100 ng/ml) were made available by courtesy of Dr. S. Kusumoto. The cells were pre-incubated with the LPS antagonist at 37° C. for 15 minutes and then stimulated with LPS at the same temperature (without washing).
(§2) Whole blood cells which had been stimulated or washed ex vivo […] were incubated on ice for 15 minutes with saturation concentrations of monoclonal fluorochrom-conjugated or biotinylated antibodies. The monoclonal antibodies CD11a (clone 25.3.1), CD16a (clone 3G8). […]

CD81/CD14 (×8) = target: T2, CD81/CD14 (×8) (Homo sapiens, UniProt P08571); experiment: FRET co-assembly of CD81 with CD14 on monocytes; conditions: LPS 4 nM, ceramide 40 nM, LTA 1 μg/ml, HSP70 7 nM, mean ± SD of 10 experiments
T2 construct: endogenous in cells; host or cells: human monocytes in whole blood (donors; also sepsis and CAD patients)
T2 sequence (P08571 20-345 limits assumed): T1 sequence (P08571 20-345 limits assumed)
Method: as §1
Whole blood cells which had been stimulated or washed ex vivo […] were incubated on ice for 15 minutes with saturation concentrations of monoclonal fluorochrom-conjugated or biotinylated antibodies. The monoclonal antibodies CD11a (clone 25.3.1), CD16a (clone 3G8). CD18 (clone 7E4), CD14 (clone RMO52), CD33 (clone My9-RD1). CD81 (clone Js64) were obtained as R-phyco-erythrine (R-PE) conjugates and CD25 (clone B1.49.9) in biotinylated form from Coulter/Immunotech (Krefeld, Germany). CD11b (clone d12), CD11c (clone S-HCL-3), CD36 (clone CB38), CD47 (clone B6H12), CD81 (clone JS-81) and (Cd55 (clone IA10) in biotinylated form and Streptavidin-R-PE were purchased from Becton/Dickinson/Pharningen (Heidelberg, Germany) CD18 (clone IB4) in biontinylated form and CD40 (clone EA-5) as R-PE conjugate were obtained from Alexis (Grünberg, Germany) and CD14 (clones ×8 and Uchml) and CD3 (clone Cris-7) in biotinylated form and Streptavidin-Cy5 (Sa-Cy5) from Dianova (Hamburg, Germany), CD32 (clone C1KM5) and CD64 (clone 10.1) were obtained as R-PE conjugates from Caltag (Burlingame, U.S.A.) and CD91 (clone 8G1) in biotinylated form from Proen (Heidelberg, Germany). A monoclonal anti-TLRA antibody (clone HTA125) was kindly provided by Dr. Kensuke. Since no energy transfer between the antibodies directed against the CD14/CD11a and CD14/CD11c pairs was detectable either on resting or on stimulated cells, these antibody combinations were not characterised further. […]

CD64/CD14 (Uchm1) = target: T3, CD64/CD14 (Uchm1) (Homo sapiens, UniProt P08571); experiment: FRET co-assembly of CD64 with CD14 on monocytes; conditions: LPS 4 nM, ceramide 40 nM, LTA 1 μg/ml, HSP70 7 nM; mean ± SD of 10 experiments; >5% = positive transfer
T3 construct: endogenous in cells; host or cells: human monocytes in whole blood
T3 sequence (P08571 20-345 limits assumed): T1 sequence (P08571 20-345 limits assumed)
Method: as §1, §2

CD16/CD14 (Uchm1) = target: T4, CD16/CD14 (Uchm1) (Homo sapiens, UniProt P08571); experiment: FRET co-assembly of CD16 with CD14 on monocytes; conditions: LPS 4 nM, ceramide 40 nM, LTA 1 μg/ml; mean ± SD of 10 experiments; >5% = positive transfer
T4 construct: endogenous in cells; host or cells: human monocytes in whole blood
T4 sequence (P08571 20-345 limits assumed): T1 sequence (P08571 20-345 limits assumed)
Method: as §1, §2

CD36/CD14 (×8) = target: T5, CD36/CD14 (×8) (Homo sapiens, UniProt P08571); experiment: FRET co-assembly of CD36 with CD14 on monocytes; conditions: LPS 4 nM, ceramide 40 nM, LTA 1 μg/ml, HSP70 7 nM; mean ± SD of 10 experiments; >5% = positive transfer
T5 construct: endogenous in cells; host or cells: human monocytes in whole blood
T5 sequence (P08571 20-345 limits assumed): T1 sequence (P08571 20-345 limits assumed)
Method: as §1, §2

CD55/CD14 (Uchm1) = target: T6, CD55/CD14 (Uchm1) (Homo sapiens, UniProt P08571); experiment: FRET co-assembly of CD55 with CD14 on monocytes; conditions: LPS 4 nM, ceramide 40 nM, LTA 1 μg/ml, HSP70 7 nM; mean ± SD of 10 experiments; >5% = positive transfer
T6 construct: endogenous in cells; host or cells: human monocytes in whole blood
T6 sequence (P08571 20-345 limits assumed): T1 sequence (P08571 20-345 limits assumed)
Method: as §1, §2

CD18(7E4)/CD14 (×8) = target: T7, CD18(7E4)/CD14 (×8) (Homo sapiens, UniProt P08571); experiment: FRET co-assembly of CD18 with CD14 on monocytes; conditions: LPS 4 nM, ceramide 40 nM, LTA 1 μg/ml, HSP70 7 nM; mean ± SD of 10 experiments; >5% = positive transfer
T7 construct: endogenous in cells; host or cells: human monocytes in whole blood
T7 sequence (P08571 20-345 limits assumed): T1 sequence (P08571 20-345 limits assumed)
Method: as §1, §2

TLR-4/CD14 (×8) = target: T8, TLR-4/CD14 (×8) (Homo sapiens, UniProt P08571); experiment: FRET co-assembly of TLR-4 with CD14 on monocytes; conditions: LPS 4 nM, ceramide 40 nM, LTA 1 μg/ml, HSP70 7 nM; mean ± SD of 10 experiments; >5% = positive transfer
T8 construct: endogenous in cells; host or cells: human monocytes in whole blood
T8 sequence (P08571 20-345 limits assumed): T1 sequence (P08571 20-345 limits assumed)
Method: as §1, §2

CD11b and CD14 = target: T9, CD11b and CD14 (Homo sapiens, UniProt P08571); experiment: FRET flow cytometry: co-assembly of CD11b and CD14 on monocytes
T9 construct: endogenous in cells; host or cells: human monocytes in heparinised whole blood (healthy donors and patients)
T9 sequence (P08571 20-345 limits assumed): T1 sequence (P08571 20-345 limits assumed)
Method: as §1
Whole blood cells which had been stimulated or washed ex vivo […] were incubated on ice for 15 minutes with saturation concentrations of monoclonal fluorochrom-conjugated or biotinylated antibodies. The monoclonal antibodies CD11a (clone 25.3.1), CD16a (clone 3G8). CD18 (clone 7E4), CD14 (clone RMO52), CD33 (clone My9-RD1). CD81 (clone Js64) were obtained as R-phyco-erythrine (R-PE) conjugates and CD25 (clone B1.49.9) in biotinylated form from Coulter/Immunotech (Krefeld, Germany). CD11b (clone d12), CD11c (clone S-HCL-3), CD36 (clone CB38), CD47 (clone B6H12), CD81 (clone JS-81) and (Cd55 (clone IA10) in biotinylated form and Streptavidin-R-PE were purchased from Becton/Dickinson/Pharningen (Heidelberg, Germany) CD18 (clone IB4) in biontinylated form and CD40 (clone EA-5) as R-PE conjugate were obtained from Alexis (Grünberg, Germany) and CD14 (clones ×8 and Uchml) and CD3 (clone Cris-7) in biotinylated form and Streptavidin-Cy5 (Sa-Cy5) from Dianova (Hamburg, Germany), CD32 (clone C1KM5) and CD64 (clone 10.1) were obtained as R-PE conjugates from Caltag (Burlingame, U.S.A.) and CD91 (clone 8G1) in biotinylated form from Proen (Heidelberg, Germany). A monoclonal anti-TLRA antibody (clone HTA125) was kindly provided by Dr. Kensuke. Since no energy transfer between the antibodies directed against the CD14/CD11a and CD14/CD11c pairs was detectable either on resting or on stimulated cells, these antibody combinations were not characterised further.
Lysis of erythrocytes and washing were carried out as described (Rothe et al., Thromb. Vasc. Biol. 16 (1996), 1437-1447). After the last washing step, the samples were divided and part of each sample incubated with a saturating amount of SA-Cy5 on ice for 15 minutes and washed before measuring.
For energy transfer experiments, […] aliquots of whole blood were treated with cholesterol/methyl cyclodextrine (C/C) (100 mg/ml/4.6 mg/ml) or 2-hydroxypropyl-β-cyclodextrine (0.15 mg/ml) at 37° C. for 30 minutes and then stimulated further with LPS (4 nM) or ceramide (40 nM) as described above. The energy transfer between CD14 and CD11b was measured.
A “FACSCalibur” flow cytometer (Becton Dickinson) equipped with an air-cooled 15 mW argon laser (excitation wavelength 488 nm), a diode laser (excitation wavelength […]) and standard filters [channel 1 (FITC): 530/30 nm band pass filter; channel 2 (R-PE being used as donor dye); 585/47 nm band pass filter; channel 3 (PerCP): pass having a length of >670 nm; and channel 4 (Cy5being used as recipient dye): 661/16 nm bad pass filter] was used. The Cellquest software (Becton Dickinson) was used for the measurements. […] Measurement was conducted without compensation. 50,000 leukocytes were required in the “list” modus, forward scattering (FSC) being used as a trigger signal. […]

CD32/CD14 (Uchm1) = target: T10, CD32/CD14 (Uchm1) (Homo sapiens, UniProt P08571); experiment: FRET co-assembly of CD32 with CD14 on monocytes; conditions: LPS 4 nM, ceramide 40 nM, LTA 1 μg/ml, HSP70 7 nM; mean ± SD of 10 experiments; >5% = positive transfer
T10 construct: endogenous in cells; host or cells: human monocytes in whole blood
T10 sequence (P08571 20-345 limits assumed): T1 sequence (P08571 20-345 limits assumed)
Method: as §1, §2

energy transfer CD47/CD14 (Uchm1) (CD47/CD14 (Uchm1)): 11.9 ± 3.1%
energy transfer CD81 (JS-81)/CD14 (×8) (CD81/CD14 (×8); CD81 clone JS-81): 3.1 ± 2.4%
energy transfer CD81 (Js64)/CD14 (×8) (CD81/CD14 (×8); CD81 clone Js64): 2.8 ± 0.7%
energy transfer CD64/CD14 (Uchm1) (CD64/CD14 (Uchm1)): 10.4 ± 1.3%
energy transfer CD16/CD14 (Uchm1) (CD16/CD14 (Uchm1)): 3.2 ± 5.6%
energy transfer CD36/CD14 (×8) (CD36/CD14 (×8)): 10.1 ± 1.0 %
energy transfer CD55/CD14 (Uchm1) (CD55/CD14 (Uchm1)): 9.7 ± 1.5%
energy transfer CD18(7E4)/CD14 (×8) (CD18(7E4)/CD14 (×8)): 5.4 ± 0.8 %
energy transfer TLR-4/CD14 (×8) (TLR-4/CD14 (×8)): 3.2 ± 2.5%
EC50 (CD11b and CD14; human monocytes, FIG. 1b, read-out: EC50cer, ceramide-induced energy transfer between antibodies against CD11b and CD14 (clone ×8)): ~0.1 nM
energy transfer CD32/CD14 (Uchm1) (CD32/CD14 (Uchm1)): 11.6 ± 3.4%
Substance: ceramide
co-assembly of CD11b and CD14 (energy transfer between monoclonal antibodies) (CD11b and CD14; human monocytes in whole blood, stimulation with the substance alone, 37° C. 15 minutes): induces the transfer of CD14 into a receptor cluster
